# From patent US7078400B2, “20-HETE synthase inhibitor” (Taisho Pharmaceutical Co., Ltd., priority 1999, dated 2006)
# pIC50: −log10 of the molar value.
# Tested on: 20-HETE synthase originated from rat kidney microsome
# Test: Inhibitory effect of 20-HETE synthase originated from rat kidney microsome
# Format: biochemical
# Conditions: 1 μM of subject compound; 20-HETE production without compound set to 100%; rat kidney microsome
# Protocol: Experimental Example [Inhibitory effect of 20-HETE synthase originated from rat kidney microsome]
# Regarding the compounds listed in Table 1, their inhibitory activity to production of 20-HETE was examined.
# The subject compound for this examination was added to a buffer comprising 50 mM of 3-morpholinopropane sulfonic acid (pH7.4), 5 mM of magnesium chloride and 1 mM of ethylenediaminetetraacetic acid (EDTA) disodium salt.
# After that, the rat kidney microsome (microsome fraction prepared from the kidney of a spontaneous hypertension rat (male, 6 weeks of age)) as an enzyme, [5,6,8,9,11,12,14,15] tritium-arachidonic acid (supplied by Amasham) as a substrate, and NADPH (supplied by Sigma) as a coenzyme were added and reacted for 1.5 hours at 37° C.
# After the reaction, formic acid was added to stop the reaction, and then acetonitrile (final concentration of 50%) was added and left for 1.5 hours at room temperature.
# The activity of 20-HETE synthase was measured by using a high performance liquid chromatograph having a detector for radioactive substances (supplied by Gilson), and equipped with a C18 reversed phase column (Biocyl C18, supplied by Bio-rad).
row,SMILES,Inhibition rate (1 μM)
1,O/N=C/Nc1ccc2ncccc2c1 [Comp. 297],71.1
2,CC(C)CCOc1ccc(N/C=N/O)cc1 [Comp. 328],121.4
3,CCCCCCCCOc1ccc(N/C=N/O)cc1 [Comp. 322],117.5
4,CCC(C)CCOc1ccc(N/C=N/O)cc1 (centres unmarked) [Comp. 326],110.8
5,COc1ccccc1CCOc1ccc(N/C=N/O)cc1 [Comp. 379],105.4
6,O/N=C/Nc1ccc(OCc2ccc(-c3ccccc3)cc2)cc1 [Comp. 397],99.3
7,O/N=C/Nc1ccc(SC(F)(F)F)cc1 [Comp. 224],47.1
8,O/N=C/Nc1ccc(OCCc2cccc(Br)c2)cc1 [Comp. 376],114.9
9,O/N=C/Nc1ccc(OCCCCc2ccccc2)cc1 [Comp. 381],116.0
10,Cc1ccc(CCOc2ccc(N/C=N/O)cc2)cc1 [Comp. 372],100.5
11,COc1cc2c(cc1N/C=N/O)oc1ccccc12 [Comp. 277],76.4
12,O=c1ccc2cc(N/C=N/O)ccc2o1 [Comp. 304],68.5
13,Cc1cc(C(C#N)c2ccc(Cl)cc2)c(Cl)cc1N/C=N/O (centres unmarked) [Comp. 279],42.8
14,CCOC(=O)CCCCCOc1ccc(N/C=N/O)cc1 [Comp. 378],102.4
15,CCN(CC)CCOc1ccc(N/C=N/O)cc1 [Comp. 351],89
16,COc1ccc(CCCOc2ccc(N/C=N/O)cc2)cc1 [Comp. 375],117.7
17,COc1ccc(N/C=N/O)c(OC)c1 [Comp. 198],81.8
18,Cc1ccc(CO)cc1N/C=N/O [Comp. 214],31.9

row,SMILES,Inhibition rate (1 μM)
1,O/N=C/Nc1ccc(OCCN2CCCCC2)cc1 [Comp. 357],98
2,COc1ccc(/C=C/c2ccc(N/C=N/O)cc2)cc1 [Comp. 228],72.0
3,O=S(=O)(CCSc1ccccc1N/C=N/O)c1ccc(Cl)cc1 [Comp. 315],50.7
4,Cc1ccc(COc2ccc(N/C=N/O)cc2)cc1 [Comp. 383],116.2
5,CCCCN(CCCC)CCCOC(=O)c1ccc(N/C=N/O)cc1 [Comp. 281],50.9
6,O/N=C/Nc1cccc2ccccc12 [Comp. 242],50.6
7,COc1ccc(CCCOc2ccc(N/C=N/O)cc2)cc1OC [Comp. 374],119.1
8,O=[N+]([O-])c1ccc(Sc2ccc(N/C=N/O)cc2)cc1 [Comp. 223],52.2
9,COC(=O)c1cc(I)ccc1N/C=N/O [Comp. 201],70.1
10,CN(C)c1ccc(/C=C/c2ccc(N/C=N/O)cc2)cc1 [Comp. 282],122.9
11,O/N=C/Nc1ccc(OCC2CCCCCC2)cc1 [Comp. 370],113.7
12,CC(C)CCCOc1ccc(N/C=N/O)cc1 [Comp. 327],110.1
13,O/N=C/Nc1ccc2c(c1)Cc1cc(Br)ccc1-2 [Comp. 274],94.5
14,O/N=C/Nc1c(F)cc(Br)cc1Br [Comp. 210],78
15,Cc1ccc2cc(N/C=N/O)ccc2n1 [Comp. 295],73.8
16,N#CC(c1ccccc1)c1ccc(N/C=N/O)cc1 (centres unmarked) [Comp. 283],62.6
17,Cc1cc(N/C=N/O)ccc1N1C(=O)c2ccc(Cl)cc2C1=O [Comp. 244],32.7
18,COC(=O)c1ccc(N/C=N/O)c(C)c1 [Comp. 199],85.6

# Same assay, conditions: 1 μM of the subject compound added; 20-HETE production without compound set to 100%; rat kidney microsome
row,SMILES,Inhibition rate (1 μM)
1,CCOc1cccc(N/C=N/O)c1 [Comp. 66],41.2
2,CCOC(=O)c1ccc(N/C=N/O)cc1 [Comp. 183],92.0
3,O/N=C/Nc1ccccc1 [Comp. 135],49.3
4,CSc1cccc(N/C=N/O)c1 [Comp. 162],62.6
5,N#Cc1ccc(N/C=N/O)cc1 [Comp. 112],37.4
6,COc1ccc(N/C=N/O)cc1OC [Comp. 78],36.3
7,Cc1ccc(N/C=N/O)cc1Cl [Comp. 86],58.7
8,CCCc1cccc(N/C=N/O)c1 [Comp. 179],63.5
9,O/N=C/Nc1cc(C(F)(F)F)ccc1Cl [Comp. 80],37.2
10,COc1cc(OC)c(N/C=N/O)cc1Cl [Comp. 108],36.4
11,Cc1cccc(N/C=N/O)c1 [Comp. 62],69.5
12,CCOc1ccc(N/C=N/O)c([N+](=O)[O-])c1 [Comp. 94],41.2
13,COc1cccc(N/C=N/O)c1OC [Comp. 99],40.8
14,COC(=O)c1ccc(OC)c(N/C=N/O)c1 [Comp. 190],44.9
15,O/N=C/Nc1ccc(F)cc1Cl [Comp. 69],58.7
16,Cc1c(Cl)cccc1N/C=N/O [Comp. 67],48.4
17,O/N=C/Nc1ccc(C(O)(C(F)(F)F)C(F)(F)F)cc1 [Comp. 105],46.7
18,COc1ccc(N/C=N/O)cc1Cl [Comp. 101],52.4
19,Cc1ccc(N/C=N/O)c([N+](=O)[O-])c1 [Comp. 143],37.3
20,CCc1cccc(C(C)C)c1N/C=N/O [Comp. 163],40.0
21,COc1cccc(N/C=N/O)c1 [Comp. 65],59.3
22,CSCc1cccc(C(F)(F)F)c1N/C=N/O [Comp. 149],36.5
23,COc1ccccc1N/C=N/O [Comp. 59],49.0
24,Cc1cccc(N/C=N/O)c1C [Comp. 63],49.3

row,SMILES,Inhibition rate (1 μM)
1,COc1ccc(Oc2ccc(C(F)(F)F)cc2N/C=N/O)cc1 [Comp. 156],39.4
2,CC(C)COC(=O)c1ccc(N/C=N/O)cc1 [Comp. 189],116.8
3,Cc1cc(C)c(N/C=N/O)c([N+](=O)[O-])c1 [Comp. 95],44.5
4,CC(C)(C)c1cccc(N/C=N/O)c1 [Comp. 175],69.9
5,O/N=C/Nc1ccc(Br)cc1Cl [Comp. 35],95.4
6,Cc1ccc(N/C=N/O)c(F)c1 [Comp. 165],105.7
7,CCCCCCCCc1ccc(N/C=N/O)cc1 [Comp. 70],32.9
8,CC(=O)Nc1ccc(N/C=N/O)cc1C(F)(F)F [Comp. 150],34.1
9,COc1ccc(C)c(N/C=N/O)c1 [Comp. 104],31.9
10,O/N=C/Nc1ccccc1F [Comp. 79],35.3
11,Cc1ccc(N/C=N/O)c(CO)c1 [Comp. 171],54.1
12,Cc1cc(Br)cc(C)c1N/C=N/O [Comp. 74],43.7
13,CCCc1ccccc1N/C=N/O [Comp. 71],42.5
14,COc1ccc(N/C=N/O)cc1F [Comp. 98],43.9
15,Cc1ccc(C(C)C)cc1N/C=N/O [Comp. 57],59.1
16,O/N=C/Nc1ccccc1Br [Comp. 75],46.9
17,CCCCCCCCCCc1ccc(N/C=N/O)cc1 [Comp. 157],121.4
18,O/N=C/Nc1ccc(OC(F)F)cc1 [Comp. 151],108.2
19,O/N=C/Nc1cccc(I)c1 [Comp. 91],36.6
20,CC(C)OC(=O)c1ccc(N/C=N/O)cc1 [Comp. 188],59.1
21,CCc1cccc(C)c1N/C=N/O [Comp. 139],69.7
22,O/N=C/Nc1cccc(Cl)c1Cl [Comp. 81],51.3
23,COc1ccc(C(F)(F)F)cc1N/C=N/O [Comp. 90],36.5
24,COc1cc(N/C=N/O)cc(OC)c1 [Comp. 76],35.1

# Same assay, conditions: 1 μM of the subject compound; 20-HETE production without compound set to 100%
row,SMILES,Inhibition rate (1 μM)
1,CCN(CCOc1ccc(N/C=N/O)cc1)c1cccc(C)c1 [Comp. 405],116.0
2,O/N=C/Nc1ccc(SC2CCCC2)cc1 [Comp. 447],95.9
3,O/N=C/Nc1ccc(OCCSc2ccccc2)cc1 [Comp. 419],116.1
4,COC(=O)CSc1ccc(N/C=N/O)cc1 [Comp. 446],95.9
5,O/N=C/Nc1ccc(SCCc2ccccc2)cc1 [Comp. 458],116.0
6,CC(C)CCSc1ccc(N/C=N/O)cc1 [Comp. 443],103.0
7,CCCCCCSc1ccc(N/C=N/O)cc1 [Comp. 451],97.6
8,O/N=C/Nc1ccc(SC2CCCCC2)cc1 [Comp. 438],87.9
9,CCCCCCCCCSc1ccc(N/C=N/O)cc1 [Comp. 453],95.3
10,Cn1c(=O)c2c(ncn2CCOc2ccc(N/C=N/O)cc2)n(C)c1=O [Comp. 406],73.7
11,CCOC(=O)CCSc1ccc(N/C=N/O)cc1 [Comp. 457],112.6
12,CCCCCCCSc1ccc(N/C=N/O)cc1 [Comp. 452],112.3
13,CCCCCSc1ccc(N/C=N/O)cc1 [Comp. 450],105.9
14,CCN(CC)CCSc1ccc(N/C=N/O)cc1 [Comp. 454],105.8
15,CCCCSc1ccc(N/C=N/O)cc1 [Comp. 442],95.7

# Same assay, conditions: concentration at which production of 20-HETE was inhibited to 50%
row,SMILES,pIC50
1,OCCCCCOc1ccc(N/C=N/O)cc1 [Comp. 427],8.59

# Same assay, conditions: concentration at which production of 20-HETE was inhibited to 50%; rat kidney microsome
row,SMILES,pIC50
1,O/N=C/Nc1ccc(Br)cc1Cl [Comp. 35],7.06
